These results are taken from patent publication US20050075282A1, “Materials and methods for inhibiting the development of epilepsy” (priority 2003, published 2005).

Assay [1] relates to HDAC. The note with it: cited from earlier work; for IC50: read-out: IC50 (HDAC inhibition).
The test system of assay [2] is HDAC. Conditions: HDAC inhibitors in rats; cited from earlier work.
Another assay concerns T1, HDAC (293T cells).
T1 construct: IC50; other: 293T cells-HDAC assay
The note with it: 293T cells-HDAC assay; reference 6; cited from earlier work.

The target in assay [3] is purified nuclear histone deacetylase. The note with it: Calf thymus, reference 2; cited from earlier work.
In a further assay the test system is GABAR. Put plainly: Whole cell voltage clamp of isolated dentate granule cells (DGCs), response to GABA, after in vivo HDAC inhibitor treatment. Also on record: species or system rats.
In a further assay the test system is AMPAR. Description: Whole cell voltage clamp of isolated DGCs, response to kainate + cyclothiazide, after in vivo HDAC inhibitor treatment. The arrangement: species or system rats.
The next assay has as its system NMDAR. Description: Whole cell voltage clamp of isolated DGCs, response to NMDA, after in vivo HDAC inhibitor treatment. The arrangement: species or system rats. Conditions: for increase of DGC NMDAR current densities in control rats: treated control vs control (VPA) or control+vehicle (TSA).
In assay [4] the test system is rats post pilocarpine-induced status epilepticus. Put plainly: Chronic epilepsy monitoring (video) after pilocarpine-induced SE. It counts as in vivo. The note with it: TSA injected three times, 2 hr, 6 hr and 24 hr post SE; seven weeks monitoring; vs vehicle. The procedure: Trichostatin A (TSA) administration. TSA was administered in the lateral ventricle {−0.8 mm A-P; 1.5 LAT; 3.2 DOWN (Paxinos and Watson 1982)} one hour prior to pilocarpine injection to induce SE. The cannula guide had been previously implanted using stereotaxic surgery two weeks prior to experiment to allow animals properly recovery. TSA (5 μl) was delivered via tubing connected to a pump at a concentration of 5 μg/ml (vehicle, 0.9% saline) at a rate of 1 μl/min for 5 minutes through 29-gauge tubing attached to the cannula. Successful delivery of TSA was verified by histological examination of cannula position and a moving mark inside the tubing. In additional studies (FIGS. 5 and 6), TSA was administered I.P., 2, 6, and 24 hrs post SE.
Pilocarpine-induced status epilepticus. Rats were injected with (−) scopolamine methyl nitrate (1 mg/kg body weight, s.c.) 30 min prior to pilocarpine hydrochloride (405 mg/kg body weight, s.c.). Controls received a sub-convulsive dosage of pilocarpine (40 mg/kg, s.c.). After one hour of SE, diazepam was used to stop SE.
Chronic epilepsy monitoring in TSA treatment. […] This effect lasted for at least 5-7 days, during which time animals had no behavioral seizures (latent period). Animals sequentially developed spontaneous seizures (epilepsy). […] Animals were video monitored for 7 weeks post SE, and the frequency and severity of seizures was quantified.

The subject of assay [5] is HeLa cell nuclear extract HDACs. The note with it: Enhances histone acetylation in HeLa cell nuclear extract; reference 4; cited from earlier work.
Where [6] appears, read: DGCs 1 Wk post SE, TSA in the lateral ventricle.
Setting [7] is: control rats, TSA in the lateral ventricle.
Where [8] appears, read: DGCs 1 Wk post SE, VPA study (FIG. 2B).
Where [9] appears, read: control rats, VPA in drinking water.

Values joined by “and” are separate entries in the source; they are usually repeats but may differ in a detail not shown here. Identical values can stand only once.

With `CCCC(=O)[O-].[Na+]` [Sodium Butyrate, Sodium butyrate], the IC50 in the assay with HDAC [1] is 1500 µM; with HDAC (293T cells), 300 to 400 µM; in assay [3] it was 250 µM. Further, the EC50 with HDAC [2] is 200 to 500 µM.
On to `CC(/C=C/C(=O)NO)=C\[C@@H](C)C(=O)c1ccc(N(C)C)cc1` [TSA, Trichostatin A], for which the GABAR Current density is 235.1±62.3 pA/pF in the assay on GABAR (DGCs 1 Wk post SE, 1-hr post SE TSA i.p. injection (FIG. 6)); 225.6±17.3 pA/pF and 225.6 ± 17.3 (n = 32) pA/pF in the assay on GABAR (DGCs 1 Wk post SE, TSA in the lateral ventricle one hour prior to pilocarpine, GABA 1 mM); 217.9±12.8 pA/pF and 217.9 ± 12.8 (n = 36) pA/pF in the assay on GABAR (control rats, TSA in the lateral ventricle, GABA 1 mM). In addition, the “GABAR Charge transfer density” value in the assay on GABAR (setting [6]) is 185.9 ± 18.4 (n = 30) (msec) × (nA)/(pF); in the assay on GABAR (setting [7]) it was 169.7 ± 14.2 (n = 37) (msec) × (nA)/(pF). In addition, the “GABAR Desensitization %” value was 83.1 ± 2.0 (n = 30) % in the assay on GABAR (setting [6]) and 83.8 ± 1.5 (n = 36) % with GABAR (setting [7]). In addition, in the assay with AMPAR (Control+TSA vs Control+vehicle), the “increase of AMPAR current densities in control rats” value was determined as 43.8%. The “effect on reduced AMPAR function / current densities” value with AMPAR (DGCs 1 Wk post SE) is recorded as “totally prevented”. Further, the “AMPAR Charge transfer density” value is reported as 703.3 ± 49.9 (n = 33) (msec) × (nA)/(pF) in the assay on AMPAR (setting [6]) and 907.6 ± 57.7 (n = 41) (msec) × (nA)/(pF) in the assay on AMPAR (setting [7]). Besides, in the assay with NMDAR (DGCs 1 Wk post SE, TSA i.p. post SE (FIG. 6)), the “effect on NMDAR current density” value was “no significant effect”. Moreover, the “NMDAR Charge transfer density” value in the assay with NMDAR (setting [6]) is recorded as 153.7 ± 16.6 (n = 31) (msec) × (nA)/(pF); in the assay with NMDAR (setting [7]), 196.2 ± 14.4 (n = 39) (msec) × (nA)/(pF). Also, the “NMDAR Current density” value with NMDAR (setting [6]) was 117.3±16.0 pA/pF and 117.3 ± 16.0 (n = 31) pA/pF; in the assay on NMDAR (control rats, TSA in the lateral ventricle, NMDA 100 μM, Mg-free), 121.0±9.0 pA/pF and 121.0 ± 9.0 (n = 39) pA/pF. Besides, the “NMDAR Desensitization %” value is 38.5 ± 3.5 (n = 31) % in the assay on NMDAR (setting [6]) and 27.1 ± 2.2 (n = 39) % with NMDAR (setting [7]). Besides, the entries for the “NMDAR Desensitization tau” value in the assay on NMDAR (setting [6]) and in the assay with NMDAR (setting [7]) were 1222.1 ± 173.8 (n = 28) msec and 1262.6 ± 197.5 (n = 37) msec, respectively. The “increase of DGC NMDAR current densities in control rats” value in the assay on NMDAR is reported as 83.1%. In [4], the “reduction of average spontaneous seizure frequency” value is “more than 70%”. Also, the “IC50 / working range (HDAC inhibition)” value in the assay with HDAC [1] (in vitro) is “nM affinity range”. For the same compound, the EC50 with HDAC [2] is 0.05 to 0.5 µM.
`CCCC(CCC)C(=O)[O-].[Na+]` [VPA, 2-propyl-pentanoic acid-sodium salt]: the “GABAR Charge transfer density” value in the assay on GABAR (DGCs 1 Wk post SE) is 217.0 ± 16.4 (n = 73) (msec) × (nA)/(pF); with GABAR (setting [9]) it was 239.8 ± 27.8 (n = 22) (msec) × (nA)/(pF). The “GABAR Desensitization %” value with GABAR (DGCs 1 Wk post SE) is given as 76.5 ± 2.1 (n = 73) %; with GABAR (control rats, VPA in drinking water, 2-second agonist application) it was 70.3 ± 4.2 (n = 22) %. The GABAR current densities worked out at 234.6±12.7 pA/pF in the assay with GABAR (setting [8]) and 243.04±19.25 pA/pF in the assay with GABAR (control rats + VPA (FIG. 2B)). Also, the “GABAR Current density” value with GABAR (DGCs 1 Wk post SE, GABA 1 mM) is listed as 234.6 ± 12.7 (n = 74) Pa/pF; in the assay on GABAR (control rats, VPA in drinking water 1.0 g/kg daily, GABA 1 mM) it was 243.0 ± 19.3 (n = 22) Pa/pF. The “AMPAR Charge transfer density” value is given as 459.8 ± 30.8 (n = 66) (msec) × (nA)/(pF) with AMPAR (DGCs 1 Wk post SE) and 780.4 ± 53.3 (n = 26) (msec) × (nA)/(pF) in the assay on AMPAR (setting [9]). For the same compound, the “effect on reduced AMPAR function / current densities” value in the assay with AMPAR (DGCs 1 Wk post SE) is on record as “partially restore”. Also, the “NMDAR Desensitization %” value with NMDAR (DGCs 1 Wk post SE) is recorded as 43.9 ± 2.7 (n = 61) %; in the assay with NMDAR (setting [9]), 35.6 ± 4.6 (n = 25) %. The “NMDAR Desensitization tau” value is 768.6 ± 51.1 (n = 51) Msec in the assay on NMDAR (DGCs 1 Wk post SE) and 669.8 ± 77.3 (n = 21) Msec in the assay with NMDAR (setting [9]). In addition, the “NMDAR Current density” value in the assay on NMDAR (DGCs 1 Wk post SE, NMDA 100 μM, Mg-free) is listed as 74.0 ± 9.5 (n = 62) Pa/pF. For the same compound, the NMDAR current densities in the assay with NMDAR (control rats + VPA (FIG. 4)) turned out to be 102.1±17.5 pA/pF. Further, the “NMDAR Charge transfer density” value in the assay with NMDAR (setting [9]) is given as 123.2 ± 18.0 (n = 25) (msec) × (nA)/(pF). For the same compound, in the assay with NMDAR, the “increase of DGC NMDAR current densities in control rats” value worked out at 49.9%. The figures for the IC50 with HDAC [1] and with HDAC (293T cells) were 400 µM and 700 to 1000 µM, respectively. Also, the EC50 in the assay on HDAC [2] is 300 to 700 µM. In addition, the Ki in [5] is 510 µM.
Consider `CCCC(CCC)C(N)=O` [VPM, valpromide], for which, in the assay on GABAR (DGCs 1 Wk post SE), the “GABAR Charge transfer density” value is reported as 249.5 ± 41.5 (n = 26) (msec) × (nA)/(pF) and the “GABAR Desensitization %” value is 77.3 ± 2.7 (n = 27) %. In addition, in the assay with GABAR (setting [8]), the GABAR current densities is listed as 218.63±33.2 pA/pF. Also, in the assay on GABAR (DGCs 1 Wk post SE, GABA 1 mM), the “GABAR Current density” value was 218.6 ± 33.2 (n = 30) Pa/pF. Besides, the “AMPAR Charge transfer density” value in the assay with AMPAR (DGCs 1 Wk post SE) was 615.3 ± 42.3 (n = 27) (msec) × (nA)/(pF). Moreover, the AMPAR current densities in the assay with AMPAR (DGCs 1 Wk post SE, VPA study (FIG. 3)) is recorded as 302.5±20.2 pA/pF. Also, in the assay on NMDAR (DGCs 1 Wk post SE), the “NMDAR Charge transfer density” value is given as 180.0 ± 22.4 (n = 26) (msec) × (nA)/(pF), the “NMDAR Desensitization %” value is reported as 46.7 ± 4.5 (n = 25) % and the “NMDAR Desensitization tau” value is 787.8 ± 131.5 (n = 23) Msec. Moreover, the NMDAR current densities in the assay on NMDAR (DGCs 1 Wk post SE, VPA study (FIG. 4)) is 141.1±17.3 pA/pF.
